Results on two compounds are retold here after publication PMC7612441 (The Febs Journal, 2021).

Structures are written as SMILES.

One test concerns the target T1, NUDT9trC RIL (Homo sapiens, UniProt Q9BW91, E230I/F231L).
T1 sequence (Q9BW91 59-339 E230I/F231L): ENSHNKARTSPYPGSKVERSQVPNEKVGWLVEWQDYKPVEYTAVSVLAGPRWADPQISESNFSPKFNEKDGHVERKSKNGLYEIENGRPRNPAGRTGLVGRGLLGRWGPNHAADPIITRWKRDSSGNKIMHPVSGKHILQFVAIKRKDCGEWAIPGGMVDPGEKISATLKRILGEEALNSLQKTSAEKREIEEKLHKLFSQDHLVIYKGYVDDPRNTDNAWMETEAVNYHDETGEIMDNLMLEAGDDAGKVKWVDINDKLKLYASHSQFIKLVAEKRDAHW
Description: isothermal titration calorimetry, one-site fit. The class given is binding. The note with it: Mg2+ (5 mM MgCl2) as cofactor; 20 mM HEPES pH 7.5, 150 mM NaCl, 20 °C; catalytically inactive mutant.

In another test the target is T2, NUDT9 (Homo sapiens, UniProt Q9BW91).
T2 sequence (Q9BW91 59-350): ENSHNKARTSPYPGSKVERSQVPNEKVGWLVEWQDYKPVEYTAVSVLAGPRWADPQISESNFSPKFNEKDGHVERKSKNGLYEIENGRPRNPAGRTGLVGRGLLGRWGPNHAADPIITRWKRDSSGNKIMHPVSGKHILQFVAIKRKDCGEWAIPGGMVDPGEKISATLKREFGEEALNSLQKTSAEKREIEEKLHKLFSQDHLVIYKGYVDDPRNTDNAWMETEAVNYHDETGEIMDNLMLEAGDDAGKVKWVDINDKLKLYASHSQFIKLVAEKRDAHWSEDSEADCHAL
Description: isothermal titration calorimetry, one-site fit. Type of test: binding. Conditions: Ca2+ (5 mM CaCl2) as cofactor, no hydrolysis; 20 mM HEPES pH 7.5, 150 mM NaCl, 20 °C.

Regarding `Nc1ncnc2c1ncn2[C@@H]1O[C@H](COP(=O)(O)OP(=O)(O)OC[C@H]2OC(O)[C@H](O)[C@@H]2O)[C@@H](O)[C@H]1O` (stereo partly shown) [ADPR], the dissociation constant Kd on NUDT9trC RIL was 16 ± 4 nM; on NUDT9 it was 12 ± 4 nM.

In the case of `Nc1ncnc2c1ncn2[C@H]1C[C@H](O)[C@@H](COP(=O)(O)OP(=O)(O)OC[C@H]2OC(O)[C@H](O)[C@@H]2O)O1` (stereo partly shown) [2′‐deoxy‐ADPR], the Kd at NUDT9trC RIL amounted to 12 ± 7 nM; at NUDT9, 9 ± 2 nM.
